Values of other authors in patent publication US10220158B2 (kaleo, Inc., priority 2014, dated 2019).

Conditions: jet injector vs conventional syringe

Compound: Cc1ncc2n1-c1ccc(Cl)cc1C(c1ccccc1F)=NC2 [midazolam]
- peak midazolam plasma concentrations produced faster: over 30%
